Measured values reported in ChEMBL document CHEMBL5500396, “Discovery, Multiparametric Optimization, and Solid-State Driven Identification of CHF-6550, a Novel Soft Dual Pharmacology Muscarinic Antagonist and β2 Agonist (MABA) for the Inhaled Treatment of Respiratory Diseases” (J Med Chem, 2024).

How the values were obtained:
in vivo [1] = settings: male, Dunkin-Hartley, guinea pig, inhaled or intranasal, 1 mM
Description: Toxicity in male albino Dunkin-Hartley guinea pig model assessed as inhibition of carbachol-induced salivation at 1 mM, preadministered with compound for 10 mins via aerosol followed by anesthesia treatment 3 hrs post compound addition and further treated with carbachol and measured every 5 mins for 4 times

in vitro [2] = settings: human, plasma
Description: Stability in human plasma assessed as half-life at 5 uM incubated for 120 mins by LC-MS/MS analysis

Cavia porcellus [3] = test: Bronchodilating effect in histamine induced male albino Dunkin-Hartley guinea pig model assessed as maximal efficacy at 0.3 nmol/kg, IT(Intratracheal) administered with compound followed by histamine addition at 5 to 30 mins and measured 1 hrs post compound treatment relative to control
Cavia porcellus [4] = test: Inhibition of acetylcholine induced bronchoconstriction in male albino Dunkin-Hartley guinea pig model at 0.3 nmol/kg, IT(Intratracheal) preadministered with compound followed by acetylcholine addition at 5 to 30 mins and measured 16 hrs post compound treatment relative to control; settings: read-out: INH
[5] = biological target: Voltage-gated inwardly rectifying potassium channel KCNH2 (Homo sapiens, UniProt Q12809)
Description: Inhibition of human ERG by patch clamp assay

Cavia porcellus [6] = test: Inhibition of acetylcholine induced bronchoconstriction in male albino Dunkin-Hartley guinea pig model at 0.3 nmol/kg, IT(Intratracheal) preadministered with compound followed by acetylcholine addition at 5 to 30 mins and measured 1 hrs post compound treatment relative to control; settings: read-out: INH
Cavia porcellus [7] = test: Inhibition of histamine induced bronchoconstriction in male albino Dunkin-Hartley guinea pig model at 0.3 nmol/kg, IT(Intratracheal) preadministered with compound followed by histamine addition at 5 to 30 mins and measured 16 hrs post compound treatment relative to control; settings: read-out: INH
[8] = Half-life in guinea pig at 3 nmol/kg, IT(Intratracheal) administered as dry powder; settings: in vivo, inhaled or intranasal
Cavia porcellus [9] = species: Cavia porcellus; test: animal or person; settings: albino Dunkin-Hartley, 1 h
Description: Bronchodilating effect in acetylcholine induced male albino Dunkin-Hartley guinea pig model assessed as maximal efficacy at 0.3 nmol/kg, IT(Intratracheal) administered with compound followed by acetylcholine addition at 5 to 30 mins in presence of ICI-118551 and measured 1 hrs post compound treatment relative to control

in vivo [10] = settings: rat, iv, 125 ug
Description: Volume of distribution at steady state in rat at 125 ug, iv measured after 1 hrs by LC-MS analysis

Trachea = test: Inhibition of carbachol-induced smooth muscle contraction in male albino Dunkin-Hartley guinea pig trachea; settings: Cavia porcellus, read-out: pIC50 (converted)
[11] = biological target: Sodium channel protein type 5 subunit alpha (Homo sapiens, UniProt Q14524)
Sodium channel protein type 5 subunit alpha, sequence (Q14524 whole entry): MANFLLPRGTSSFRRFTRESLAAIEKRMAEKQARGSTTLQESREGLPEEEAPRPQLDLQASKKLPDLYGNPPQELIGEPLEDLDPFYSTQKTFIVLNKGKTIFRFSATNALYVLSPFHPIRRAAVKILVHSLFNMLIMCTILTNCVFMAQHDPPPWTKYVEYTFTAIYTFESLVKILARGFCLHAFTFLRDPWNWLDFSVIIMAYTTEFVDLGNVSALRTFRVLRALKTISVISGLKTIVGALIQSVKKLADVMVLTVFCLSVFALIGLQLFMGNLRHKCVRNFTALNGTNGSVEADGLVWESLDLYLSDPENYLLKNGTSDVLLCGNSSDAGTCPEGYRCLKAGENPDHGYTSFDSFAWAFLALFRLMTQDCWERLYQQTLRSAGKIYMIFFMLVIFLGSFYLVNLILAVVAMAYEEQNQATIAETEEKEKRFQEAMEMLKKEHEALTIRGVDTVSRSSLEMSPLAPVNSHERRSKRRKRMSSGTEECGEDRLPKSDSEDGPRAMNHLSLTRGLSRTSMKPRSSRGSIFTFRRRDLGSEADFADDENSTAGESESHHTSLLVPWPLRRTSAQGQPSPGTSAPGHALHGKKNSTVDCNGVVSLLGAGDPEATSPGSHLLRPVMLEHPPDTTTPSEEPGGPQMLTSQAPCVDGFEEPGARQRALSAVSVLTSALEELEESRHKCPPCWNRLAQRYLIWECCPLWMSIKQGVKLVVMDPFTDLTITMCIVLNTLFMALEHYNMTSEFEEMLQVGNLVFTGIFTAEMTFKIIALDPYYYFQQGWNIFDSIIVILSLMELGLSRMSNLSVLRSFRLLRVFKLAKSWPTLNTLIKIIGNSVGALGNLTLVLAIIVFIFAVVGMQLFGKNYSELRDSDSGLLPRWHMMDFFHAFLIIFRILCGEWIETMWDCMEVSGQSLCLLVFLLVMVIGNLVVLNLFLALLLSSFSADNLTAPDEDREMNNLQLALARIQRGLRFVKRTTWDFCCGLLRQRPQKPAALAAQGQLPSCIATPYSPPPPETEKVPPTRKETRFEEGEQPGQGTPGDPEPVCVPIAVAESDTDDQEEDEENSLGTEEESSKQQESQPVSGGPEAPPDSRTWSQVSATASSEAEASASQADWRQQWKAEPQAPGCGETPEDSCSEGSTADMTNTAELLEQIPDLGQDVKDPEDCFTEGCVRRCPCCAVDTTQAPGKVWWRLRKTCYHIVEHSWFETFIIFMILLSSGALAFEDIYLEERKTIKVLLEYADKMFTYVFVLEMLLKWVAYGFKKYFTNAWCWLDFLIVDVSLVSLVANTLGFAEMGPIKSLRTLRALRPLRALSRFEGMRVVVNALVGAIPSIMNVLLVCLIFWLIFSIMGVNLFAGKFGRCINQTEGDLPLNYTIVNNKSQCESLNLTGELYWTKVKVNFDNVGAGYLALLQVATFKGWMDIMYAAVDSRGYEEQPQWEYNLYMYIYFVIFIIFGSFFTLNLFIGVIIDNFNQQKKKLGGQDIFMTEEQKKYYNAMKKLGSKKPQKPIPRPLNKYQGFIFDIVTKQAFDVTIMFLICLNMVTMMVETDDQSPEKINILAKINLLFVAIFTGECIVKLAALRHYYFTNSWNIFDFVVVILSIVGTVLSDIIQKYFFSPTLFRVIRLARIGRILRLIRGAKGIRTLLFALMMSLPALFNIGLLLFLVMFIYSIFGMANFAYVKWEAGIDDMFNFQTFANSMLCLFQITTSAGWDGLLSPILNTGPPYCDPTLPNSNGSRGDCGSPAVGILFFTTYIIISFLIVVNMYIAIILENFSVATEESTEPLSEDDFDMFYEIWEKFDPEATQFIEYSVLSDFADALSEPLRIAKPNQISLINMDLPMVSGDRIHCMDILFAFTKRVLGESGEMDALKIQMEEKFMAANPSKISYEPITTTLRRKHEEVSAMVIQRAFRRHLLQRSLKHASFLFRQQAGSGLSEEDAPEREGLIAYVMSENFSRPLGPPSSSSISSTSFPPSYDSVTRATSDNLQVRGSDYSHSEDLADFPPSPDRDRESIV
Description: Inhibition of human Nav1.5

in vitro [12] = settings: rat, plasma
Description: Stability in rat plasma assessed as half-life at 5 uM incubated for 120 mins by LC-MS/MS analysis

in vitro [13] = settings: rat, hepatocytes
Description: Metabolic stability in rat hepatocytes assessed as clearance measured per 10^6 cells at 1 uM incubated for 90 mins by LC-MS/MS analysis

[14] = biological target: Voltage-dependent L-type calcium channel subunit alpha-1C (Homo sapiens, UniProt Q13936)
Description: Inhibition of human Cav1.2

in vitro [15] = settings: guinea pig, plasma
Description: Stability in guinea pig plasma assessed as half-life at 5 uM incubated for 120 mins by LC-MS/MS analysis

Cavia porcellus [16] = test: Bronchodilating effect in acetylcholine induced male albino Dunkin-Hartley guinea pig model assessed as maximal efficacy at 0.3 nmol/kg, IT(Intratracheal) administered with compound followed by acetylcholine addition at 5 to 30 mins and measured 1 hrs post compound treatment relative to control
in vivo [17] = settings: male, Dunkin-Hartley, guinea pig, inhaled or intranasal, 3 mM
Description: Toxicity in male albino Dunkin-Hartley guinea pig model assessed as inhibition of carbachol-induced salivation at 3 mM, preadministered with compound for 10 mins via aerosol followed by anesthesia treatment 3 hrs post compound addition and further treated with carbachol and measured every 5 mins for 4 times

[18] = biological target: Beta-2 adrenergic receptor (Homo sapiens, UniProt P07550)
Beta-2 adrenergic receptor (Homo sapiens, UniProt P07550), sequence (P07550 whole entry): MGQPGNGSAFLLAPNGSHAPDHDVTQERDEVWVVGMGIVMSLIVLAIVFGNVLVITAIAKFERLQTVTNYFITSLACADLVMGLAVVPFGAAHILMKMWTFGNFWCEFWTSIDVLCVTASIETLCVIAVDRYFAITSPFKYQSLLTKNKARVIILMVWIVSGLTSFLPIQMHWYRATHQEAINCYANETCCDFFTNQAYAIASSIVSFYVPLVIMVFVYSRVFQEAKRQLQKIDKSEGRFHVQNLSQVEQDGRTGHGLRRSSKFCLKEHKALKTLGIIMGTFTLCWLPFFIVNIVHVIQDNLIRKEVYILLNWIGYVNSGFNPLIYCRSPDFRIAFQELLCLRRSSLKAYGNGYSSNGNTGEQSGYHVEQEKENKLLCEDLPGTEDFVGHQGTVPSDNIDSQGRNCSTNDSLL
Description: Displacement of [125I]-Cyanopindolol from human beta2 adrenoceptor assessed as inhibition constant incubated for 1 hrs by Microbeta scintillation counter

Cavia porcellus [19] = species: Cavia porcellus; test: animal or person; settings: albino Dunkin-Hartley, 16 h, read-out: INH
Description: Inhibition of acetylcholine induced bronchoconstriction in male albino Dunkin-Hartley guinea pig model at 0.3 nmol/kg, IT(Intratracheal) preadministered with compound followed by acetylcholine addition at 5 to 30 mins in presence of ICI-118551 and measured 16 hrs post compound treatment relative to control

[20] = biological target: Beta-2 adrenergic receptor (Cavia porcellus, UniProt Q8K4Z4); test: Agonist activity at beta2 adrenoceptor in male albino Dunkin-Hartley guinea pig trachea assessed as inhibition of histamine induced smooth muscle contraction
Beta-2 adrenergic receptor (Cavia porcellus, UniProt Q8K4Z4), sequence (Q8K4Z4 whole entry): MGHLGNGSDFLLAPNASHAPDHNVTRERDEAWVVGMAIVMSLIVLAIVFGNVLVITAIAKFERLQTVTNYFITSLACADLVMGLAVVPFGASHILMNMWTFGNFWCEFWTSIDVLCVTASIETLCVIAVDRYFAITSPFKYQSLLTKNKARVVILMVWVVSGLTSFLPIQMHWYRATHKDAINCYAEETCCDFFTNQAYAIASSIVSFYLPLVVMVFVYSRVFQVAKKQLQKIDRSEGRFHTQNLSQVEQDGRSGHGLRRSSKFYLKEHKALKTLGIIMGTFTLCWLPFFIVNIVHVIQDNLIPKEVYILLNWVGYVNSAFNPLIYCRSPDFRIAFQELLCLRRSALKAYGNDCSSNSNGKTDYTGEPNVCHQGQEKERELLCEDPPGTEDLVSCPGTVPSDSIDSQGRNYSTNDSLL

Cavia porcellus [21] = test: Inhibition of histamine induced bronchoconstriction in male albino Dunkin-Hartley guinea pig model at 0.3 nmol/kg, IT(Intratracheal) preadministered with compound followed by histamine addition at 5 to 30 mins and measured 1 hrs post compound treatment relative to control; settings: read-out: INH
in vivo [22] = settings: rat, iv, 125 ug; remark: listed apart in the source
Description: Clearance in rat at 125 ug, iv measured after 1 hrs by LC-MS analysis

in vitro [23] = settings: human, hepatocytes
Description: Metabolic stability in human hepatocytes assessed as clearance measured per 10^6 cells at 1 uM incubated for 90 mins by LC-MS/MS analysis

Cavia porcellus [24] = species: Cavia porcellus; test: animal or person; settings: albino Dunkin-Hartley, 1 h, read-out: INH
Description: Inhibition of acetylcholine induced bronchoconstriction in male albino Dunkin-Hartley guinea pig model at 0.3 nmol/kg, IT(Intratracheal) preadministered with compound followed by acetylcholine addition at 5 to 30 mins in presence of ICI-118551 and measured 1 hrs post compound treatment relative to control

[25] = Stability in guinea pig lung S9 fraction at 1 uM incubated for 60 mins by LC-MS/MS analysis
[26] = Protein binding in human plasma at 5 uM incubated for 4 hrs by LC-MS/MS analysis
[27] = biological target: Muscarinic acetylcholine receptor M3 (Cavia porcellus, UniProt Q8VH26); test: Antagonist activity at M3 receptor in male albino Dunkin-Hartley guinea pig trachea assessed as inhibition of carbachol-induced smooth muscle contraction in presence of propranolol
Muscarinic acetylcholine receptor M3 (Cavia porcellus, UniProt Q8VH26), sequence (Q8VH26 whole entry): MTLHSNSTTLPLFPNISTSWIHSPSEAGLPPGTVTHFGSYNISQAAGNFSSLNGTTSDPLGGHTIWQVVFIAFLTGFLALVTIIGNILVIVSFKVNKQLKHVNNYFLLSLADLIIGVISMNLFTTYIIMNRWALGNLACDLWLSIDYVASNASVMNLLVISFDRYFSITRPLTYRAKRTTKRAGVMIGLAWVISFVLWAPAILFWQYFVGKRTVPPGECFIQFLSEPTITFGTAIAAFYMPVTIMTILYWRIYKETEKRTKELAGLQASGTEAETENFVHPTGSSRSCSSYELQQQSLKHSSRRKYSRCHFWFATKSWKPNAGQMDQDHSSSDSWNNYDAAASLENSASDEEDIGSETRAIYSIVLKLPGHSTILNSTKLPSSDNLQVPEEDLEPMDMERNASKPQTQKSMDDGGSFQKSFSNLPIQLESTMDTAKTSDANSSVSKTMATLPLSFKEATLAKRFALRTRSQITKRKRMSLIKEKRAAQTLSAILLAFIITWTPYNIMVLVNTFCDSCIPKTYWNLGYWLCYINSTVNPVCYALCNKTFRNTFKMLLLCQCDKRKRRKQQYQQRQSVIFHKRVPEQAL

Cavia porcellus [28] = test: Inhibition of acetylcholine induced bronchoconstriction in male albino Dunkin-Hartley guinea pig model at 1 nmol/kg, IT(Intratracheal) preadministered with compound followed by acetylcholine addition at 5 to 30 mins and measured 24 hrs post compound treatment relative to control; settings: read-out: INH
Cavia porcellus [29] = species: Cavia porcellus; test: animal or person; settings: albino Dunkin-Hartley, 1 h, read-out: INH; remark: listed apart in the source
Description: Inhibition of acetylcholine induced bronchoconstriction in male albino Dunkin-Hartley guinea pig model at 1 nmol/kg, IT(Intratracheal) preadministered with compound followed by acetylcholine addition at 5 to 30 mins in presence of ICI-118551 and measured 1 hrs post compound treatment relative to control

in vitro [30] = settings: guinea pig, hepatocytes
Description: Metabolic stability in guinea pig hepatocytes assessed as clearance measured per 10^6 cells at 1 uM incubated for 90 mins by LC-MS/MS analysis

in vitro [31] = settings: human, lung S9 fraction
Description: Stability in human lung S9 fraction assessed as half-life at 1 uM incubated for 60 mins by LC-MS/MS analysis

[32] = Drug concentration in male albino Dunkin-Hartley guinea pig lung at 50 nmol/kg, IT(Intratracheal) measured after 0.083 hrs; settings: inhaled or intranasal
[33] = biological target: Muscarinic acetylcholine receptor M3 (Homo sapiens, UniProt P20309)
Muscarinic acetylcholine receptor M3 (Homo sapiens, UniProt P20309), sequence (P20309 whole entry): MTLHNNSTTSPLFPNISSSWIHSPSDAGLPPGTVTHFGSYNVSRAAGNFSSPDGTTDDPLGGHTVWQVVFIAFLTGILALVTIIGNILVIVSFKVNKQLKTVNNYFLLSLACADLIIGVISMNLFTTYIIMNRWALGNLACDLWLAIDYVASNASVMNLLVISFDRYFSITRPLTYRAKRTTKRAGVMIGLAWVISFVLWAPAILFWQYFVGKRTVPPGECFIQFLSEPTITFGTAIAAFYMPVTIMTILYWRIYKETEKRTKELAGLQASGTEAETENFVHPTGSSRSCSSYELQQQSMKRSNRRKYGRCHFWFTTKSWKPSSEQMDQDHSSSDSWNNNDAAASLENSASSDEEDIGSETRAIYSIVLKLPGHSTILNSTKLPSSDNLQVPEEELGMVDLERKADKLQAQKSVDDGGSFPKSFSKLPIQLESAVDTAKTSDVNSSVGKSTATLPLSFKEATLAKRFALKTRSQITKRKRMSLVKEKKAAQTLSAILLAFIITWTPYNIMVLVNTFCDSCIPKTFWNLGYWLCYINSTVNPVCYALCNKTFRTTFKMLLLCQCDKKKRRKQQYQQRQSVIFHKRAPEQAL
Description: Displacement of Scopolamine methyl chloride,[N-methyl-3H] from human muscarinic M3 receptor assessed as inhibition constant incubated for 2 hrs by Microbeta scintillation counter

in vitro [34] = settings: rat, lung S9 fraction
Description: Stability in rat lung S9 fraction assessed as half-life at 1 uM incubated for 60 mins by LC-MS/MS analysis

in vitro [35] = settings: guinea pig, lung S9 fraction
Description: Stability in guinea pig lung S9 fraction assessed as half-life at 1 uM incubated for 60 mins by LC-MS/MS analysis

Cavia porcellus [36] = test: Inhibition of histamine induced bronchoconstriction in male albino Dunkin-Hartley guinea pig model at 1 nmol/kg, IT(Intratracheal) preadministered with compound followed by histamine addition at 5 to 30 mins and measured 24 hrs post compound treatment relative to control; settings: read-out: INH
[37] = Stability in human plasma assessed as parent compound remaining at 10 uM incubated for 60 mins by LC-MS/MS analysis
[38] = Drug concentration in male albino Dunkin-Hartley guinea pig lung at 50 nmol/kg, IT(Intratracheal) measured after 3 hrs; settings: inhaled or intranasal
[39] = Drug concentration in male albino Dunkin-Hartley guinea pig lung at 50 nmol/kg, IT(Intratracheal) measured after 24 hrs; settings: inhaled or intranasal
[40] = Metabolic stability in rat hepatocytes assessed as parent compound remaining at 10 uM incubated for 60 mins by LC-MS/MS analysis
Cavia porcellus [41] = test: Inhibition of histamine induced bronchoconstriction in male albino Dunkin-Hartley guinea pig model at 1 nmol/kg, IT(Intratracheal) preadministered with compound followed by histamine addition at 5 to 30 mins and measured 1 hrs post compound treatment relative to control; settings: read-out: INH
[42] = Metabolic stability in human hepatocytes assessed as parent compound remaining at 10 uM incubated for 60 mins by LC-MS/MS analysis
Cavia porcellus [43] = species: Cavia porcellus; test: animal or person; settings: albino Dunkin-Hartley, 24 h, read-out: INH
Description: Inhibition of acetylcholine induced bronchoconstriction in male albino Dunkin-Hartley guinea pig model at 1 nmol/kg, IT(Intratracheal) preadministered with compound followed by acetylcholine addition at 5 to 30 mins in presence of ICI-118551 and measured 24 hrs post compound treatment relative to control

[44] = Stability in rat plasma assessed as parent compound remaining at 10 uM incubated for 60 mins by LC-MS/MS analysis
Cavia porcellus [45] = test: Inhibition of acetylcholine induced bronchoconstriction in male albino Dunkin-Hartley guinea pig model at 1 nmol/kg, IT(Intratracheal) preadministered with compound followed by acetylcholine addition at 5 to 30 mins and measured 1 hrs post compound treatment relative to control; settings: read-out: INH
Cavia porcellus [46] = test: Inhibition of acetylcholine induced bronchoconstriction in male albino Dunkin-Hartley guinea pig model at 3 nmol/kg, IT(Intratracheal) preadministered with compound followed by acetylcholine addition at 5 to 30 mins and measured 1 hrs post compound treatment relative to control; settings: read-out: INH
Cavia porcellus [47] = species: Cavia porcellus; test: animal or person; settings: albino Dunkin-Hartley, 16 h, read-out: INH; remark: listed apart in the source
Description: Inhibition of acetylcholine induced bronchoconstriction in male albino Dunkin-Hartley guinea pig model at 3 nmol/kg, IT(Intratracheal) preadministered with compound followed by acetylcholine addition at 5 to 30 mins in presence of ICI-118551 and measured 16 hrs post compound treatment relative to control

[48] = Protein binding in guinea pig plasma at 5 uM incubated for 4 hrs by LC-MS/MS analysis
Cavia porcellus [49] = test: Inhibition of histamine induced bronchoconstriction in male albino Dunkin-Hartley guinea pig model at 3 nmol/kg, IT(Intratracheal) preadministered with compound followed by histamine addition at 5 to 30 mins and measured 1 hrs post compound treatment relative to control; settings: read-out: INH
Cavia porcellus [50] = test: Inhibition of histamine induced bronchoconstriction in male albino Dunkin-Hartley guinea pig model at 3 nmol/kg, IT(Intratracheal) preadministered with compound followed by histamine addition at 5 to 30 mins and measured 16 hrs post compound treatment relative to control; settings: read-out: INH
Cavia porcellus [51] = test: Inhibition of acetylcholine induced bronchoconstriction in male albino Dunkin-Hartley guinea pig model at 3 nmol/kg, IT(Intratracheal) preadministered with compound followed by acetylcholine addition at 5 to 30 mins and measured 16 hrs post compound treatment relative to control; settings: read-out: INH
Cavia porcellus [52] = species: Cavia porcellus; test: animal or person; settings: albino Dunkin-Hartley, 1 h, read-out: INH; remark: listed apart in the source
Description: Inhibition of acetylcholine induced bronchoconstriction in male albino Dunkin-Hartley guinea pig model at 3 nmol/kg, IT(Intratracheal) preadministered with compound followed by acetylcholine addition at 5 to 30 mins in presence of ICI-118551 and measured 1 hrs post compound treatment relative to control

[53] = Protein binding in rat plasma at 5 uM incubated for 4 hrs by LC-MS/MS analysis
Cavia porcellus [54] = test: Inhibition of acetylcholine induced bronchoconstriction in male albino Dunkin-Hartley guinea pig model at 3 nmol/kg, IT(Intratracheal) preadministered with compound followed by acetylcholine addition at 5 to 30 mins and measured 24 hrs post compound treatment relative to control; settings: read-out: INH
in vivo [55] = settings: male, Dunkin-Hartley, guinea pig, inhaled or intranasal, 0.3 mM
Description: Toxicity in male albino Dunkin-Hartley guinea pig model assessed as inhibition of carbachol-induced salivation at 0.3 mM, preadministered with compound for 10 mins via aerosol followed by anesthesia treatment 3 hrs post compound addition and further treated with carbachol and measured every 5 mins for 4 times

Row | Structure (SMILES) | half-life at 2 h, 5 µM (in vitro [2]) [h] | inhibition in vivo at 0.0003 µmol/kg (Cavia porcellus [6]) [%] | IC50 (Trachea) [nM] | half-life at 2 h, 5 µM (in vitro [12]) [h] | hepatocyte CLint at 1.5 h, 1 µM (in vitro [13]) [µL/min/1e6 cells] | half-life at 2 h, 5 µM (in vitro [15]) [h] | Ki [18] [nM] | IC50 [20] [nM] | inhibition in vivo at 0.0003 µmol/kg (Cavia porcellus [21]) [%] | hepatocyte CLint at 1.5 h, 1 µM (in vitro [23]) [µL/min/1e6 cells] | inhibition in vivo at 0.0003 µmol/kg (Cavia porcellus [24]) [%] | remaining at 1 h, 1 µM [25] [%] | fraction unbound at 4 h, 5 µM [26] | IC50 [27] [nM] | hepatocyte CLint at 1.5 h, 1 µM (in vitro [30]) [µL/min/1e6 cells] | half-life at 1 h, 1 µM (in vitro [31]) [h] | Ki [33] [nM] | half-life at 1 h, 1 µM (in vitro [34]) [h] | half-life at 1 h, 1 µM (in vitro [35]) [h] | inhibition in vivo at 0.001 µmol/kg (Cavia porcellus [45]) [%] | also measured
1 | CN1CCC[C@@H](OC(=O)[C@](O)(c2ccccc2)c2cccc(OCCCNC(=O)c3ccc(CNC[C@H](O)c4ccc(O)c5[nH]c(=O)ccc45)cc3)c2)C1 | > 2.5 | 89 | 0.126 | 0.15 | 12 | 1.3 | 0.0251 | 0.1 | 89 | 3 | 78 | 91.1 | – | – | – | – | – | – | – | – | inhibition at 3.167 h, 1000 µM (in vivo [1]): 33%; Emax at 0.0003 µmol/kg (Cavia porcellus [3]): 89%; inhibition in vivo at 0.0003 µmol/kg (Cavia porcellus [4]): 84%; IC50 [5]: 128000 nM; inhibition in vivo at 0.0003 µmol/kg (Cavia porcellus [7]): 57%; half-life [8]: 25 h; Emax at 0.0003 µmol/kg (Cavia porcellus [9]): 89%; Vd at 1 h (in vivo [10]): 0.75 L/kg; IC50 [11]: 310000 nM; IC50 [14]: 314000 nM; Emax at 0.0003 µmol/kg (Cavia porcellus [16]): 89%; inhibition at 3.167 h, 3000 µM (in vivo [17]): 43%; inhibition in vivo at 0.0003 µmol/kg (Cavia porcellus [19]): 54%; clearance at 1 h (in vivo [22]): 75 mL/min/kg
2 | O=C(NCCCOc1cccc([C@](O)(C(=O)OCC2CCN(Cc3ccccc3)CC2)c2ccccc2)c1)c1ccc(CNC[C@H](O)c2ccc(O)c3[nH]c(=O)ccc23)cc1 | > 2.5 | 49 | 0.501 | 0.45 | 30 | < 0.0833 | 0.1 | 0.316 | 34 | 25 | 23 | 14 | 0.01 | 0.398 | 316 | 3.22 | 0.398 | 2.37 | 0.35 | 94 | inhibition in vivo at 0.001 µmol/kg (Cavia porcellus [28]): 95%; inhibition in vivo at 0.001 µmol/kg (Cavia porcellus [29]): 87%; concentration at 0.083 h [32]: 1270 ng/g; inhibition in vivo at 0.001 µmol/kg (Cavia porcellus [36]): 5%; remaining at 1 h, 10 µM [37]: > 99%; concentration at 3 h [38]: 1160 ng/g; concentration at 24 h [39]: 1170 ng/g; remaining at 1 h, 10 µM [40]: 70%; inhibition in vivo at 0.001 µmol/kg (Cavia porcellus [41]): 66%; remaining at 1 h, 10 µM [42]: 91%; inhibition in vivo at 0.001 µmol/kg (Cavia porcellus [43]): 79%; remaining at 1 h, 10 µM [44]: 67%
3 | O=C(NCCCOc1cccc([C@@](O)(C(=O)OCC2CCN(Cc3ccccc3)CC2)c2ccccc2)c1)c1ccc(CNCC(O)c2ccc(O)c3[nH]c(=O)ccc23)cc1 (some centres not stated) | > 2.5 | – | 0.251 | 0.183 | 33 | > 2.5 | 0.0501 | 0.0501 | – | 18 | – | 91.9 | 0.01 | 10 | 41 | 2.3 | 10 | 4.52 | 4.67 | – | inhibition in vivo at 0.003 µmol/kg (Cavia porcellus [46]): 93%; inhibition in vivo at 0.003 µmol/kg (Cavia porcellus [47]): 39%; fraction unbound at 4 h, 5 µM [48]: 0.01; inhibition in vivo at 0.003 µmol/kg (Cavia porcellus [49]): 86%; inhibition in vivo at 0.003 µmol/kg (Cavia porcellus [50]): 39%; inhibition in vivo at 0.003 µmol/kg (Cavia porcellus [51]): 56%; inhibition in vivo at 0.003 µmol/kg (Cavia porcellus [52]): 70%
4 | O=C(c1ccc(OCc2ccc(CNC[C@H](O)c3ccc(O)c4[nH]c(=O)ccc34)cc2)cc1)N1CCC(C(=O)OC2CN3CCC2CC3)(c2ccccc2)CC1 (single isomer, unassigned) | > 2.5 | – | 1 | > 2.5 | 27 | 1.82 | 0.2 | 0.501 | – | 15 | – | – | 0.02 | 2.51 | – | 4.67 | 0.251 | 3.62 | 3.6 | 60 | fraction unbound at 4 h, 5 µM [53]: 0.15; inhibition in vivo at 0.003 µmol/kg (Cavia porcellus [46]): 93%; inhibition in vivo at 0.003 µmol/kg (Cavia porcellus [49]): 21%; inhibition in vivo at 0.003 µmol/kg (Cavia porcellus [54]): 68%; inhibition in vivo at 0.003 µmol/kg (Cavia porcellus [52]): 90%
5 | C[N+]1(C)[C@@H]2C[C@@H](OC(=O)C(O)(c3cccs3)c3cccs3)C[C@H]1[C@@H]1O[C@@H]12 [TIOTROPIUM BROMIDE] | – | – | – | – | – | – | – | – | – | – | – | – | – | – | – | – | – | – | – | – | inhibition at 3.167 h, 300 µM (in vivo [55]): 77%
